# Test system: MV-4-11 cells
# Test: Gene expression microarray analysis (Affymetrix PrimeView) and GSEA
# Assay type: cell-based, human
# Set-up: RFU PODN (11730768_x_at) / Fold change /veh PODN (11730768_x_at) / RFU LINC00158 (11744669_a_at) / Fold change /veh LINC00158 (11744669_a_at) / RFU DUSP10 (11751237_a_at) / Fold change /veh DUSP10 (11751237_a_at) / RFU ID3 (11757404_x_at) / Fold change /veh ID3 (11757404_x_at) / RFU PLEKHG5 (11737974_s_at) / Fold change /veh PLEKHG5 (11737974_s_at) / RFU LRRC4B (11730491_at) / Fold change /veh LRRC4B (11730491_at) / RFU GIMAP4 (11747438_a_at) / Fold change /veh GIMAP4 (11747438_a_at) / RFU KRT8 (11758183_x_at) / Fold change /veh KRT8 (11758183_x_at) / RFU CNN1 (11734310_a_at) / Fold change /veh CNN1 (11734310_a_at) / RFU VPS37D (11726825_at) / Fold change /veh VPS37D (11726825_at) / RFU C10orf10 (11716522_x_at) / Fold change /veh C10orf10 (11716522_x_at) / RFU KIR2DL2 /// KIR2DL4 /// KIR2DL5A /// KIR2DL5B /// KIR2DS1 /// KIR2DS2 /// KIR2DS3 /// KIR2DS4 /// KIR3DL3 /// KIR3DL3 /// KIR3DS1 (11738374_at) / Fold change /veh KIR2DL2 /// KIR2DL4 /// KIR2DL5A /// KIR2DL5B /// KIR2DS1 /// KIR2DS2 /// KIR2DS3 /// KIR2DS4 /// KIR3DL3 /// KIR3DL3 /// KIR3DS1 (11738374_at) / RFU C1QL1 (11718748_at) / Fold change /veh C1QL1 (11718748_at) / RFU TMPRSS4 (11747572_a_at) / Fold change /veh TMPRSS4 (11747572_a_at) / RFU HAMP (11756126_x_at) / Fold change /veh HAMP (11756126_x_at) / RFU RNFT2 (11725882_a_at) / Fold change /veh RNFT2 (11725882_a_at) / RFU NR4A2 (11747474_a_at) / Fold change /veh NR4A2 (11747474_a_at) / RFU ABCC12 (11746883_a_at) / Fold change /veh ABCC12 (11746883_a_at) / RFU TMEM136 (11760407_x_at) / Fold change /veh TMEM136 (11760407_x_at) / RFU CLDN22 /// WWC2 (11732394_at) / Fold change /veh CLDN22 /// WWC2 (11732394_at) / RFU HLA-DPB1 (11760878_x_at) / Fold change /veh HLA-DPB1 (11760878_x_at) / RFU SPINT1 (11716480_a_at) / Fold change /veh SPINT1 (11716480_a_at) / RFU GAP43 (11754022_s_at) / Fold change /veh GAP43 (11754022_s_at) / RFU A4GNT (11735810_at) / Fold change /veh A4GNT (11735810_at) / RFU PRB3 (11715151_x_at) / Fold change /veh PRB3 (11715151_x_at) / RFU TUBB4B (11761932_at) / Fold change /veh TUBB4B (11761932_at) / RFU CAPN14 (11732068_a_at) / Fold change /veh CAPN14 (11732068_a_at) / RFU TMCC2 (11721928_a_at) / Fold change /veh TMCC2 (11721928_a_at) / RFU IRGQ (11745062_a_at) / Fold change /veh IRGQ (11745062_a_at) / RFU FAM174B (11720279_a_at) / Fold change /veh FAM174B (11720279_a_at) / RFU TMPRSS4 (11748680_a_at) / Fold change /veh TMPRSS4 (11748680_a_at) / RFU FAM212B (11763350_a_at) / Fold change /veh FAM212B (11763350_a_at) / RFU PLEKHG5 (11743358_a_at) / Fold change /veh PLEKHG5 (11743358_a_at) / RFU ZSCAN30 (11745921_a_at) / Fold change /veh ZSCAN30 (11745921_a_at) / RFU CMKLR1 (11741424_a_at) / Fold change /veh CMKLR1 (11741424_a_at) / RFU LOC101060620 /// MAPK8IP1 (11723275_at) / Fold change /veh LOC101060620 /// MAPK8IP1 (11723275_at) / RFU SPTSSB (11747773_x_at) / Fold change /veh SPTSSB (11747773_x_at) / RFU PRSS12 (11739890_at) / Fold change /veh PRSS12 (11739890_at) / RFU BIN1 (11741810_x_at) / Fold change /veh BIN1 (11741810_x_at) / RFU WNT11 (11732464_a_at) / Fold change /veh WNT11 (11732464_a_at) / RFU C10orf10 (11716521_a_at) / Fold change /veh C10orf10 (11716521_a_at) / RFU C5orf56 (11738089_at) / Fold change /veh C5orf56 (11738089_at) / RFU CYB561 (11721691_x_at) / Fold change /veh CYB561 (11721691_x_at) / RFU ANKRD19P (11752326_a_at) / Fold change /veh ANKRD19P (11752326_a_at) / RFU OR2T12 /// OR2T33 /// OR2T8 (11738714_s_at) / Fold change /veh OR2T12 /// OR2T33 /// OR2T8 (11738714_s_at) / RFU VCAN (11748164_a_at) / Fold change /veh VCAN (11748164_a_at) / RFU JSRP1 (11732532_at) / Fold change /veh JSRP1 (11732532_at) / RFU KRTAP10-11 (11738290_x_at) / Fold change /veh KRTAP10-11 (11738290_x_at) / RFU MYO3A (11730013_a_at) / Fold change /veh MYO3A (11730013_a_at) / RFU EBF3 (11725865_a_at) / Fold change /veh EBF3 (11725865_a_at) / RFU CAMK2N1 (11719241_x_at) / Fold change /veh CAMK2N1 (11719241_x_at) / RFU C5orf56 (11738088_a_at) / Fold change /veh C5orf56 (11738088_a_at) / RFU OLFML3 (11715873_a_at) / Fold change /veh OLFML3 (11715873_a_at) / RFU LOC100653217 /// NTM (11731650_a_at) / Fold change /veh LOC100653217 /// NTM (11731650_a_at) / RFU MAPK11 (11762145_a_at) / Fold change /veh MAPK11 (11762145_a_at) / RFU FIZ1 (11724087_x_at) / Fold change /veh FIZ1 (11724087_x_at) / RFU OASL (11726364_x_at) / Fold change /veh OASL (11726364_x_at) / RFU SOX15 (11748057_x_at) / Fold change /veh SOX15 (11748057_x_at) / RFU CD79A (11719716_a_at) / Fold change /veh CD79A (11719716_a_at) / RFU HIST1H1D (11736915_at) / Fold change /veh HIST1H1D (11736915_at) / RFU CASKIN2 (11723855_a_at) / Fold change /veh CASKIN2 (11723855_a_at) / RFU LOC730098 (11760151_x_at) / Fold change /veh LOC730098 (11760151_x_at) / RFU OR4N2 (11742367_at) / Fold change /veh OR4N2 (11742367_at) / RFU PRRT2 (11749266_a_at) / Fold change /veh PRRT2 (11749266_a_at) / RFU SNX32 (11753110_a_at) / Fold change /veh SNX32 (11753110_a_at) / RFU CDHR5 (11726645_a_at) / Fold change /veh CDHR5 (11726645_a_at) / RFU RCAN1 (11760418_a_at) / Fold change /veh RCAN1 (11760418_a_at) / RFU FAM167A (11723789_a_at) / Fold change /veh FAM167A (11723789_a_at) / RFU FAM26E (11764081_at) / Fold change /veh FAM26E (11764081_at) / RFU ISYNA1 (11749810_s_at) / Fold change /veh ISYNA1 (11749810_s_at) / RFU ACY1 (11761880_at) / Fold change /veh ACY1 (11761880_at) / RFU 11764098_at / Fold change /veh 11764098_at / RFU SAMD14 (11745864_x_at) / Fold change /veh SAMD14 (11745864_x_at) / RFU NPB (11741838_a_at) / Fold change /veh NPB (11741838_a_at) / RFU TMPRSS6 (11731388_a_at) / Fold change /veh TMPRSS6 (11731388_a_at) / RFU KRTAP10-2 (11738614_at) / Fold change /veh KRTAP10-2 (11738614_at) / RFU ARHGAP8 /// PRR5-ARHGAP8 (11727945_x_at) / Fold change /veh ARHGAP8 /// PRR5-ARHGAP8 (11727945_x_at) / RFU KRTAP5-7 /// NADSYN1 (11734609_at) / Fold change /veh KRTAP5-7 /// NADSYN1 (11734609_at) / RFU RASL12 (11751679_a_at) / Fold change /veh RASL12 (11751679_a_at) / RFU CDKN2B (11736163_a_at) / Fold change /veh CDKN2B (11736163_a_at) / RFU PRF1 (11729649_at) / Fold change /veh PRF1 (11729649_at) / RFU, ZNF638 /// ZNF638-IT1 / Fold change vs veh, ZNF638 /// ZNF638-IT1 / RFU, PANK3 / Fold change vs veh, PANK3 / RFU, SH3YL1 / Fold change vs veh, SH3YL1 / RFU, ZEB2 / Fold change vs veh, ZEB2 / RFU, NRIP1 / Fold change vs veh, NRIP1 / RFU, PTTG1IP / Fold change vs veh, PTTG1IP / RFU, CAPN2 / Fold change vs veh, CAPN2 / RFU, MED14 / Fold change vs veh, MED14 / RFU, SNORA58 / Fold change vs veh, SNORA58 / RFU, C1orf63 / Fold change vs veh, C1orf63 / RFU, LRRFIP1 / Fold change vs veh, LRRFIP1 / RFU, NDUFAF7 / Fold change vs veh, NDUFAF7 / RFU, SLC12A2 / Fold change vs veh, SLC12A2 / RFU, IBTK / Fold change vs veh, IBTK / RFU, ESF1 / Fold change vs veh, ESF1 / Fold change vs veh, TMEM50B / RFU, TAOK1 / Fold change vs veh, TAOK1 / RFU, ACBD3 / Fold change vs veh, ACBD3 / RFU, TMA16 / Fold change vs veh, TMA16 / RFU, RWDD3 / Fold change vs veh, RWDD3 / RFU, BCAT1 / Fold change vs veh, BCAT1 / RFU, EDEM3 / Fold change vs veh, EDEM3 / RFU, TMEM33 / Fold change vs veh, TMEM33 / RFU, WDR75 / Fold change vs veh, WDR75 / RFU, AHCTF1 / Fold change vs veh, AHCTF1 / RFU, TFRC / Fold change vs veh, TFRC / RFU, ZDHHC17 / Fold change vs veh, ZDHHC17 / RFU, NOM1 / Fold change vs veh, NOM1 / RFU, ARL8B / Fold change vs veh, ARL8B / RFU, ZBTB11 / Fold change vs veh, ZBTB11 / RFU, TAMM41 / Fold change vs veh, TAMM41 / RFU, KIAA1704 /// LOC100996395 / Fold change vs veh, KIAA1704 /// LOC100996395 / RFU, ING1 / Fold change vs veh, ING1 / RFU, TRMT61B / Fold change vs veh, TRMT61B / RFU, FUBP3 / Fold change vs veh, FUBP3 / RFU, TP53 / Fold change vs veh, TP53 / RFU, TNKS2 / Fold change vs veh, TNKS2 / RFU, ZFP14 / Fold change vs veh, ZFP14 / RFU, ACTR2 / Fold change vs veh, ACTR2 / RFU, PPP3R1 / Fold change vs veh, PPP3R1 / RFU, PIK3R1 / Fold change vs veh, PIK3R1 / RFU, HNRNPA1 / Fold change vs veh, HNRNPA1 / RFU, RNF170 / Fold change vs veh, RNF170 / RFU, ZNF28 / Fold change vs veh, ZNF28 / RFU, RNGTT / Fold change vs veh, RNGTT / RFU, OGT / Fold change vs veh, OGT / RFU, BRD1 / Fold change vs veh, BRD1 / RFU, MARS / Fold change vs veh, MARS / RFU, ZNF655 / Fold change vs veh, ZNF655 / RFU, FAHD1 / Fold change vs veh, FAHD1 / RFU, BDP1 / Fold change vs veh, BDP1 / RFU, LRRCC1 / Fold change vs veh, LRRCC1 / RFU, ARID1A / Fold change vs veh, ARID1A / RFU, ZNF146 / Fold change vs veh, ZNF146 / RFU, ZNF330 / Fold change vs veh, ZNF330 / RFU, GPN3 / Fold change vs veh, GPN3 / RFU, C9orf123 / Fold change vs veh, C9orf123 / RFU, N4BP2L2 / Fold change vs veh, N4BP2L2 / RFU, ARFIP1 / Fold change vs veh, ARFIP1 / RFU, FAM179B / Fold change vs veh, FAM179B / RFU, BCL10 / Fold change vs veh, BCL10 / RFU, UHRF1BP1L / Fold change vs veh, UHRF1BP1L / RFU, BET1 / Fold change vs veh, BET1 / RFU, CNOT2 / Fold change vs veh, CNOT2 / RFU, ZNF268 / Fold change vs veh, ZNF268 / Fold change vs veh, ZNF507 / RFU, DGCR2 / Fold change vs veh, DGCR2 / RFU, WDSUB1 / Fold change vs veh, WDSUB1 / Fold change vs veh, HSP90B1 /// MIR3652 / RFU, ADSS / Fold change vs veh, ADSS / RFU, GK / Fold change vs veh, GK / RFU, ZNF148 / Fold change vs veh, ZNF148 / RFU, TAF9 / Fold change vs veh, TAF9 / RFU, SLC1A5 / Fold change vs veh, SLC1A5 / RFU, SLMO2 / Fold change vs veh, SLMO2 / RFU, ABCC4 / Fold change vs veh, ABCC4 / RFU, LOC101060439 /// RAP1B / Fold change vs veh, LOC101060439 /// RAP1B / RFU, RFX7 / Fold change vs veh, RFX7 / RFU, GTPBP10 / Fold change vs veh, GTPBP10 / RFU, CNEP1R1 / Fold change vs veh, CNEP1R1 / RFU, BIVM-ERCC5 /// ERCC5 / Fold change vs veh, BIVM-ERCC5 /// ERCC5 / RFU, ILF3 / Fold change vs veh, ILF3 / RFU 11762660_at / Fold change /veh 11762660_at / RFU VCAN (11757783_s_at) / Fold change /veh VCAN (11757783_s_at) / RFU DDX43 (11728927_at) / Fold change /veh DDX43 (11728927_at) / RFU KRT8 (11758188_x_at) / Fold change /veh KRT8 (11758188_x_at) / RFU NKD1 (11759106_at) / Fold change /veh NKD1 (11759106_at) / RFU SRD5A1 (11742802_a_at) / Fold change /veh SRD5A1 (11742802_a_at) / RFU TPSAB1 /// TPSB2 (11721975_s_at) / Fold change /veh TPSAB1 /// TPSB2 (11721975_s_at) / RFU GSTM3 (11746129_a_at) / Fold change /veh GSTM3 (11746129_a_at) / RFU IL23R (11737362_x_at) / Fold change /veh IL23R (11737362_x_at) / RFU TMEM51 (11727254_a_at) / Fold change /veh TMEM51 (11727254_a_at) / RFU PIWIL2 (11732686_x_at) / Fold change /veh PIWIL2 (11732686_x_at) / RFU ORM1 (11744905_x_at) / Fold change /veh ORM1 (11744905_x_at) / RFU CCDC152 (11743942_at) / Fold change /veh CCDC152 (11743942_at) / RFU ECM1 (11717891_a_at) / Fold change /veh ECM1 (11717891_a_at) / RFU IL23R (11748794_a_at) / Fold change /veh IL23R (11748794_a_at) / RFU TNFAIP8L3 (11732012_x_at) / Fold change /veh TNFAIP8L3 (11732012_x_at) / RFU MBOAT4 (11741988_at) / Fold change /veh MBOAT4 (11741988_at) / RFU 11764193_at / Fold change /veh 11764193_at / RFU TMEM53 (11763286_at) / Fold change /veh TMEM53 (11763286_at) / RFU MAGEB2 (11727129_at) / Fold change /veh MAGEB2 (11727129_at) / RFU TMEM200A (11744735_a_at) / Fold change /veh TMEM200A (11744735_a_at) / RFU CCDC152 (11751479_a_at) / Fold change /veh CCDC152 (11751479_a_at) / RFU FAM211A (11726209_a_at) / Fold change /veh FAM211A (11726209_a_at) / RFU RGS16 (11746705_a_at) / Fold change /veh RGS16 (11746705_a_at) / RFU VCAN (11755009_s_at) / Fold change /veh VCAN (11755009_s_at) / RFU RHOB (11743442_s_at) / Fold change /veh RHOB (11743442_s_at) / RFU RGS16 (11720943_a_at) / Fold change /veh RGS16 (11720943_a_at) / RFU RGS16 (11720944_at) / Fold change /veh RGS16 (11720944_at) / RFU, VPS4B / Fold change vs veh, VPS4B / RFU, CREB1 / Fold change vs veh, CREB1 / RFU, DNAJC13 / Fold change vs veh, DNAJC13 / RFU, GNAQ / Fold change vs veh, GNAQ / RFU, CDK5R1 / Fold change vs veh, CDK5R1 / RFU, ZRANB3 / Fold change vs veh, ZRANB3 / RFU, CUL4A / Fold change vs veh, CUL4A / RFU, CCNY / Fold change vs veh, CCNY / RFU, UFL1 / Fold change vs veh, UFL1 / RFU, COG3 / Fold change vs veh, COG3 / RFU, DIAPH2 / Fold change vs veh, DIAPH2 / RFU, SKA2 / Fold change vs veh, SKA2 / RFU, AFF3 / Fold change vs veh, AFF3 / RFU, LMF1 / Fold change vs veh, LMF1 / RFU, IPO11 / Fold change vs veh, IPO11 / RFU, DFFB / Fold change vs veh, DFFB / RFU, FOXP1 / Fold change vs veh, FOXP1 / RFU, CARD8 / Fold change vs veh, CARD8 / RFU, STRN3 / Fold change vs veh, STRN3 / RFU, ADK / Fold change vs veh, ADK / RFU, RASSF2 / Fold change vs veh, RASSF2 / RFU, WIPF1 / Fold change vs veh, WIPF1 / RFU, LARP1B / Fold change vs veh, LARP1B / RFU, RASA1 / Fold change vs veh, RASA1 / RFU, RB1 / Fold change vs veh, RB1 / RFU, PPFIA1 / Fold change vs veh, PPFIA1 / RFU, MAT2A / Fold change vs veh, MAT2A / RFU, CCT5 / Fold change vs veh, CCT5 / RFU, WDR92 / Fold change vs veh, WDR92 / RFU, CUX1 / Fold change vs veh, CUX1 / RFU, TTC7A / Fold change vs veh, TTC7A / RFU, TMEM135 / Fold change vs veh, TMEM135 / RFU, DEPTOR / Fold change vs veh, DEPTOR / RFU, CPM / Fold change vs veh, CPM / RFU, DNAJB6 / Fold change vs veh, DNAJB6 / RFU, CACNA2D3 / Fold change vs veh, CACNA2D3 / RFU, DTX4 / Fold change vs veh, DTX4 / RFU, TFCP2 / Fold change vs veh, TFCP2 / RFU, GMCL1 /// GMCL1P1 / Fold change vs veh, GMCL1 /// GMCL1P1 / RFU, AEBP2 / Fold change vs veh, AEBP2 / RFU, SNHG1 /// SNORD22 /// SNORD25 /// SNORD26 /// SNORD27 /// SNORD28 /// SNORD29 /// SNORD31 / Fold change vs veh, SNHG1 /// SNORD22 /// SNORD25 /// SNORD26 /// SNORD27 /// SNORD28 /// SNORD29 /// SNORD31 / Fold change (Aza/veh), C12orf56 (ProbeSet 11735607_a_at) / Fold change (ACY-1035/veh), C12orf56 (ProbeSet 11735607_a_at) / Fold change (Aza/veh), FGFR1OP (ProbeSet 11751329_s_at) / Fold change (ACY-1035/veh), FGFR1OP (ProbeSet 11751329_s_at) / Fold change (Aza/veh), VPS36 (ProbeSet 11739960_a_at) / Fold change (ACY-1035/veh), VPS36 (ProbeSet 11739960_a_at) / RFU SYPL1 (11715823_x_at) / Fold change /veh SYPL1 (11715823_x_at) / RFU IGFBP7 (11715501_s_at) / Fold change /veh IGFBP7 (11715501_s_at) / RFU REEP3 (11722064_at) / Fold change /veh REEP3 (11722064_at) / RFU IGLL1 (11728026_x_at) / Fold change /veh IGLL1 (11728026_x_at): dose or concentration left out as unconfirmed
# Conditions: MV-4-11 cells, 48 hours
smiles,measurement,value
Nc1ncn([C@@H]2O[C@H](CO)[C@@H](O)[C@H]2O)c(=O)n1 [azacitidine],Fold change /veh RCAN1 (11760418_a_at),0.93

# Reference: paper PMC5218480 (PLoS ONE, 2017)
